According to PMC9947563, “Identification of the molecular determinants of antagonist potency in the allosteric binding pocket of human P2X4” (Frontiers in Pharmacology, 2023):

Experiments:
[1] = biological target: T1, rat P2X4 T312I (r4-T312I) (Rattus norvegicus, UniProt P51577, T312I); test: ATP-induced calcium influx (Fluo-4) in 1321N1 cells stably expressing rat P2X4 T312I; format: cell-based
T1 construct: expressed in transfected cells; host or cells: 1321N1 astrocytoma cells, stably transfected
T1 sequence (P51577 1-388 T312I): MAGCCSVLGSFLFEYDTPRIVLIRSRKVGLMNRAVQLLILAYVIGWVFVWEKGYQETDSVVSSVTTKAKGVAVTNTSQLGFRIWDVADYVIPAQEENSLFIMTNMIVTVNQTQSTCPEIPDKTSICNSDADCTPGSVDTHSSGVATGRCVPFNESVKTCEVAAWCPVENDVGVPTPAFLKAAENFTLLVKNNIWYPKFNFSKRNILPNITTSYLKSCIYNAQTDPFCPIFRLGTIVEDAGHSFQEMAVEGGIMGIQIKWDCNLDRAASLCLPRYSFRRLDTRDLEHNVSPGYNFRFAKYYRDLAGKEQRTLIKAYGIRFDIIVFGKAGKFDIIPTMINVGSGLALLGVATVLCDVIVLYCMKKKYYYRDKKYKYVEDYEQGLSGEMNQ
Source text: Plasmid encoding rat P2X4 (r4-WT) ([Royle et al., 2005]) was a kind gift from Ruth Murrell-Lagnado, whilst that encoding human P2X4 with a C-terminal (His)10 tag has been reported previously ([Young et al., 2008]). Plasmids containing rat P2X4 T312I (r4-T312I) and human P2X4 I312T mutants (h4-I312T) were generated using the QuikChange Lightning site-directed mutagenesis kit (Agilent) according to manufacturer’s instructions. Sequencing of the constructs and of the genomic DNA from stably transfected cells confirmed correct full coding sequences.
(§1) 1321N1 astrocytoma cells were cultured (at 37°C, 5% CO2) in Dulbecco’s modified Eagle’s medium (DMEM/F-12 with Glutamax) supplemented with 10% foetal bovine serum (FBS) and 200 unit/mL of penicillin and streptomycin antibiotics (Fisher Scientific). Stably transfected clones were grown in DMEM/F-12 with Glutamax medium supplemented with G-418 (Geneticin®, Fisher Scientific), 600 μg/mL and 150 μg/mL during selection and maintenance, respectively. FuGene HD Transfection Reagent (Promega) was used according to the manufacturer’s protocol for the generation of stable cell line expressing h4-WT, r4-WT, h4-I312T, and r4-T312I. Each cell line was then tested for P2X4 receptor expression by Western blot and for functionality using the Ca^2+ influx assay.
(§2) Cells were plated the day before assay into poly-lysine-coated 96-well plates at 40–55,000 cells/mL. To load cells with calcium-sensitive fluorescent dye, culture medium was replaced with modified Ringer’s buffer (140 mM NaCl, 10 mM HEPES, 10 mM Glucose, 1 mM MgCl2, 1 mM CaCl2, 2.5 mM KCl, 0.5% BSA, pH = 7.4) containing 2.6 μM FLUO4-AM (Fisher Scientific) and 250 μM probenecid (Sigma), and cells were incubated for 20–30 min. Prior to assay, buffer was replaced with fresh modified Ringer’s buffer containing probenecid but not the dye. […] A Fluoroskan Ascent FL plate reader (Fisher Scientific) equipped with a solution dispenser and an appropriate filter pair (excitation: 485 nm, emission: 538 nm) was used to record 5-s baseline followed by P2X4-mediated calcium influx measurements for 20–25 s after ATP stimulation (final concentration ranging between 0.03 and 100 μM in buffered solution, pH = 7.4). The collected responses were normalized to the first data-point recorded after ATP injection.
Data processing and data analysis were carried out using Graphpad Prism version 6 for Mac. Figures are presented as Mean ± SEM. Statistical significance of any difference observed between samples was calculated through one-way ANOVA followed by Dunnett’s multiple comparisons test with a single pooled variance (control, unless otherwise specified) or, when comparing only two sets of data, using an unpaired t-test with Welch’s correction. When comparing data obtained from multiple independent experiments (N), each dataset was normalized to the mean value obtained for the vehicle control.

[2] = biological target: T2, human P2X4 wild type (h4-WT) (Homo sapiens, UniProt Q99571); test: ATP-induced calcium influx (Fluo-4) in 1321N1 cells stably expressing human P2X4 wild type; format: cell-based; conditions: human vs rat P2X4
T2 construct: expressed in transfected cells; host or cells: 1321N1 astrocytoma cells, stably transfected
T2 sequence (Q99571 1-388): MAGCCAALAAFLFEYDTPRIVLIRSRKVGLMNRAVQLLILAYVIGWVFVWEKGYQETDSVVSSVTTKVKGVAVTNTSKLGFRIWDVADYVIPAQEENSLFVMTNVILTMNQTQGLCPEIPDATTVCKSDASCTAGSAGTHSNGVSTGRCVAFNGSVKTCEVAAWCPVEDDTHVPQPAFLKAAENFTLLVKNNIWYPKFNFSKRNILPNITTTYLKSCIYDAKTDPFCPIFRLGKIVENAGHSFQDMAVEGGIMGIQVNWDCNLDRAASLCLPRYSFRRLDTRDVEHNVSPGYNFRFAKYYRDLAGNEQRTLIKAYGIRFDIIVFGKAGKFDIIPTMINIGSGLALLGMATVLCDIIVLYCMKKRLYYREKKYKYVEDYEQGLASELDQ
Procedure: as §1, with “FuGene HD Transfection Reagent (Promega) was used according to the manufacturer’s protocol for the generation of stable cell line expressing h4-WT, r4-WT, h4-I312T, and r4-T312I.” left out
as §2, with “To load cells with calcium-sensitive fluorescent dye, culture medium was replaced with modified Ringer’s buffer (140 mM NaCl, 10 mM HEPES, 10 mM Glucose, 1 mM MgCl2, 1 mM CaCl2, 2.5 mM KCl, 0.5% BSA, pH = 7.4) containing 2.6 μM FLUO4-AM (Fisher Scientific) and 250 μM probenecid (Sigma), and cells were incubated for 20–30 min.” left out
Data processing and data analysis were carried out using Graphpad Prism version 6 for Mac. Figures are presented as Mean ± SEM. […] When comparing data obtained from multiple independent experiments (N), each dataset was normalized to the mean value obtained for the vehicle control.

[3] = system: zebrafish P2X4; design: method as in Ase et al. (2015); conditions: ref Ase et al. (2015); cited from earlier work

CC(C)c1cc(Br)c(NC(=O)Nc2cccnc2)c(Br)c1 [BX430]
IC50 [1]: 1.39 µM | increase in BX430 potency by T312I mutation in rat P2X4 ([1]; rat P2X4 T312I vs rat P2X4 WT): approx. 47 fold | Hill coefficient (BX-430 inhibition curve) ([1]; rat P2X4 T312I, 1 µM ATP): 2.475 | potency at human P2X4 compared with the rat isoform [2]: approximately 30 fold | IC50 [3]: 1.89 µM
